Where two headings read alike, the source gives them in different places.
Tests used:
[1] = molecular target: T1, serotoninergic receptor 5-HT2C (Homo sapiens, UniProt P28335); assay: Binding assay 5-HT2C (h), [3H]mesulergine, HEK-293 cells; settings: read-out: 5-HT2C [%]
T1 construct: expressed in transfected cells; host or cells: HEK-293 cells
T1 sequence (P28335 33-458): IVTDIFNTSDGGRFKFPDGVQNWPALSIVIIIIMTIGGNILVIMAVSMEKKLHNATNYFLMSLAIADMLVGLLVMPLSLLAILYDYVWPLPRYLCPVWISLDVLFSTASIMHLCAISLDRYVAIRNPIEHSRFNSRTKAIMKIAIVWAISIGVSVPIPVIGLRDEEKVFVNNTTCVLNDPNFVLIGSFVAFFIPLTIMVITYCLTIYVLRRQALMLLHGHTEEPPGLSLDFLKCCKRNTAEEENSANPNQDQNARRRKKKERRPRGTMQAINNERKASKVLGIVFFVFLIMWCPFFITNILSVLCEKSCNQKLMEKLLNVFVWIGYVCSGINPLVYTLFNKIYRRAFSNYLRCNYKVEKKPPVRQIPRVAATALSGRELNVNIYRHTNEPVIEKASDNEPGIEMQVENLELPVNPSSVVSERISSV
Outline: (§1)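 Compounds tested at a single 1×10^−6 M concentration against the listed radioligands; bound label counted by scintillation, with non-specific binding defined by excess unlabelled ligand and subtracted from total.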

[2] = molecular target: histaminergic H1 receptor (Homo sapiens, UniProt P35367); assay: Binding assay H1 (h), [3H]pyrilamine, HEK-293 cells; design: expressed in transfected cells; host or cells: HEK-293 cells; settings: read-out: H1 [%]
Outline: as §1

[3] = molecular target: serotoninergic 5-HT7 receptor (Homo sapiens, UniProt P34969); assay: Binding assay 5-HT7 (h), [3H]LSD, CHO cells; design: expressed in transfected cells; host or cells: CHO cells; settings: read-out: 5-HT7
Outline: as §1

muscarinic M3 receptor = molecular target: T2, muscarinic M3 receptor (Homo sapiens, UniProt P20309); assay: Binding assay M3 (h), [3H]4-DAMP, CHO cells; settings: read-out: M3 [%]
T2 construct: expressed in transfected cells; host or cells: CHO cells
Outline: as §1

dopaminergic D3 receptor [4] = molecular target: T3, dopaminergic D3 receptor (Homo sapiens, UniProt P35462); assay: Binding assay D3 (h), [3H]methyl-spiperone, CHO cells; design: expressed in transfected cells; host or cells: CHO cells; settings: read-out: D3 [%]
Outline: as §1

[5] = molecular target: T4, serotoninergic 5-HT6 receptor (Homo sapiens, UniProt P50406); assay: Binding assay 5-HT6 (h), [3H]LSD, CHO cells; design: expressed in transfected cells; host or cells: CHO cells; settings: read-out: 5-HT6
Outline: as §1

[6] = molecular target: T4, serotoninergic 5-HT6 receptor; assay: Cellular functional assay, serotoninergic 5-HT6 receptor (agonism/antagonism); type: cell-based; settings: for inhibition at 1 µM: read-out: 5-HT6-antag. [%]
Protocol: (§2) The compounds were tested at the concentration of 1×10^−6M.
(§3) In the Tables ag refers to agonism, and antag to antagonism).

hERG potassium channels = hERG potassium channels (Homo sapiens, UniProt Q12809); assay: hERG potassium channel block, electrophysiology (IonWorks Quattro), CHO cells
Protocol: Ability to block hERG potassium channels was determined using the electrophysiological method and cloned hERG potassium channels (KCNH2 gene, expressed in CHO cells) as biological material. The effects were evaluated using IonWorks™ Quattro system (MDS-AT).
hERG current was elicited using a pulse pattern with fixed amplitudes (conditioning prepulse: −80 mV for 25 ms; test pulse: +40 mV for 80 ms) from a holding potential of 0 mV. hERG current was measured as a difference between the peak current at 1 ms after the test step to +40 mV and the steady-state current at the end of the step to +40 mV.
Data acquisition and analyses was performed using the IonWorks Quattro™ system operation software (version 2.0.2; Molecular Devices Corporation, Union City, Calif.). Data were corrected for leak current.

adrenergic α2C receptor [7] = molecular target: T5, adrenergic α2C receptor (Homo sapiens, UniProt P18825); assay: Binding assay α2C (h), [3H]RX 821002, CHO cells; design: expressed in transfected cells; host or cells: CHO cells; settings: read-out: α2C [%]
T5 sequence (P18825 1-462): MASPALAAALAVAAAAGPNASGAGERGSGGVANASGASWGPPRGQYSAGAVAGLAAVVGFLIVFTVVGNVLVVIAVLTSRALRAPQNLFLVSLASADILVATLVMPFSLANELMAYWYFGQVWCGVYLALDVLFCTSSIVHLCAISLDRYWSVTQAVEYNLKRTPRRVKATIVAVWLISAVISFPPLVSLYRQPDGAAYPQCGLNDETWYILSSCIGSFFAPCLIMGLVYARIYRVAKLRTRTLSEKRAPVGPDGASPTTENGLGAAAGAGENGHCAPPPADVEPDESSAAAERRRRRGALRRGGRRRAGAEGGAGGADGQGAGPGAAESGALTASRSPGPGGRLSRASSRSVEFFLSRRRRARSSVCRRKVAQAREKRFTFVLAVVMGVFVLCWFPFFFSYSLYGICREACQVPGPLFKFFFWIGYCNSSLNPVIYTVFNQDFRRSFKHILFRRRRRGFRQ
Outline: as §1

dopaminergic D3 receptor [8] = molecular target: T3, dopaminergic D3 receptor; assay: Cellular functional assay, dopaminergic D3 receptor (agonism/antagonism); type: cell-based; settings: for inhibition at 1 µM: CHO, read-out: D3-antag. [%]; for activation at 1 µM: agonist effect, percent of control specific agonist response (300 nM dopamine for control), 1×10^−6 M, D3 (h), CHO cells, read-out: D3-ag [%]
Protocol: as §2, §3

adrenergic α2C receptor [9] = molecular target: T5, adrenergic α2C receptor; assay: Cellular functional assay, adrenergic α2C receptor (agonism/antagonism); type: cell-based; settings: for activation at 1 µM: agonist effect, percent of control specific agonist response, compounds tested at 1×10^−6M, read-out: α2C −ag [%]; for inhibition at 1 µM: read-out: α2C −antag. [%]
Protocol: as §2, §3

[10] = molecular target: serotoninergic 5-HT2A receptor (Homo sapiens, UniProt P28223); assay: Cellular functional assay, serotoninergic 5-HT2A receptor (agonism/antagonism); type: cell-based; settings: for activation at 1 µM: read-out: 5-HT2A -ag [%]; for inhibition at 1 µM: read-out: 5-HT2A -antag [%]
Outline: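 Human receptors tested in cell-based functional format for both agonist and antagonist modes. Single compound concentration of 1×10^−6M.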

[11] = % block of hERG current, cloned hERG channels in CHO cells, IonWorks Quattro

T2 sequence (P20309 whole entry): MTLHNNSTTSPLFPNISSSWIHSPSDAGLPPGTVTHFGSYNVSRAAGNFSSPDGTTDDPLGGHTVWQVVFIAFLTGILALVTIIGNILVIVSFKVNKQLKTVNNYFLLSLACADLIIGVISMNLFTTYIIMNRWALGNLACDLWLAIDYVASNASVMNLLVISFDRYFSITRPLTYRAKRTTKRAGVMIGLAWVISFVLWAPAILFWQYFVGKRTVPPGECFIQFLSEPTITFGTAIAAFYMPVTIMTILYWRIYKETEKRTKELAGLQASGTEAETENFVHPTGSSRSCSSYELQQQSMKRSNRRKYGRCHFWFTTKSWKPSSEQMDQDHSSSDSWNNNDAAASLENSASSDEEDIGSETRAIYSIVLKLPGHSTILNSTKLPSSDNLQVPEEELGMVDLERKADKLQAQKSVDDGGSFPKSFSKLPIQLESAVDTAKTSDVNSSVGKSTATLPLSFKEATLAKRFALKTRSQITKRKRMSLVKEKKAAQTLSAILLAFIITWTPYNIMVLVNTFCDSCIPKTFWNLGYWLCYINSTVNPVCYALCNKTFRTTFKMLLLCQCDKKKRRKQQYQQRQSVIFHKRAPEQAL
T4 sequence (P50406 whole entry): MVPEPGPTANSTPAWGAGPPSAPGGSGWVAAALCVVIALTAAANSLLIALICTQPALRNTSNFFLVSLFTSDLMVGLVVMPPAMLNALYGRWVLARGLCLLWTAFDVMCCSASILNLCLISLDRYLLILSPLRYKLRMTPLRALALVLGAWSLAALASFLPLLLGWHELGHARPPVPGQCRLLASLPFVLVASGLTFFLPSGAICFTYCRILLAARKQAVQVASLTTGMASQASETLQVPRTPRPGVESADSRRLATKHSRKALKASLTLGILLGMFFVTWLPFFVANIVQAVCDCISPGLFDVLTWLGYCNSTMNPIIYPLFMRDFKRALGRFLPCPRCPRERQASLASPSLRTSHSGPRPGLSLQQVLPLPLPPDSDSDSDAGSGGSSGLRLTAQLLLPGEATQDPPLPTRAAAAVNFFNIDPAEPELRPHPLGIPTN
T3 sequence (P35462 whole entry): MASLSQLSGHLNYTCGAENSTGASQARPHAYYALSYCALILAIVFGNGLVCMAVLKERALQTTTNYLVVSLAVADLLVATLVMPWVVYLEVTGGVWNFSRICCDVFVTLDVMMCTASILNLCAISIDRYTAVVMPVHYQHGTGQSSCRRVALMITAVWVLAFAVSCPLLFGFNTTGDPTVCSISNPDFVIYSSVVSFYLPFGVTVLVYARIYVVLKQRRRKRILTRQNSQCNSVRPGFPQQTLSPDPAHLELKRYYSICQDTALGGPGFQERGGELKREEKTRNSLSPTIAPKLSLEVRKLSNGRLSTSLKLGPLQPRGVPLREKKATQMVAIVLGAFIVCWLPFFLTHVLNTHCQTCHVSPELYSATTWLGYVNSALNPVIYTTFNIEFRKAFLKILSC
Sequence of hERG potassium channels (Q12809 whole entry): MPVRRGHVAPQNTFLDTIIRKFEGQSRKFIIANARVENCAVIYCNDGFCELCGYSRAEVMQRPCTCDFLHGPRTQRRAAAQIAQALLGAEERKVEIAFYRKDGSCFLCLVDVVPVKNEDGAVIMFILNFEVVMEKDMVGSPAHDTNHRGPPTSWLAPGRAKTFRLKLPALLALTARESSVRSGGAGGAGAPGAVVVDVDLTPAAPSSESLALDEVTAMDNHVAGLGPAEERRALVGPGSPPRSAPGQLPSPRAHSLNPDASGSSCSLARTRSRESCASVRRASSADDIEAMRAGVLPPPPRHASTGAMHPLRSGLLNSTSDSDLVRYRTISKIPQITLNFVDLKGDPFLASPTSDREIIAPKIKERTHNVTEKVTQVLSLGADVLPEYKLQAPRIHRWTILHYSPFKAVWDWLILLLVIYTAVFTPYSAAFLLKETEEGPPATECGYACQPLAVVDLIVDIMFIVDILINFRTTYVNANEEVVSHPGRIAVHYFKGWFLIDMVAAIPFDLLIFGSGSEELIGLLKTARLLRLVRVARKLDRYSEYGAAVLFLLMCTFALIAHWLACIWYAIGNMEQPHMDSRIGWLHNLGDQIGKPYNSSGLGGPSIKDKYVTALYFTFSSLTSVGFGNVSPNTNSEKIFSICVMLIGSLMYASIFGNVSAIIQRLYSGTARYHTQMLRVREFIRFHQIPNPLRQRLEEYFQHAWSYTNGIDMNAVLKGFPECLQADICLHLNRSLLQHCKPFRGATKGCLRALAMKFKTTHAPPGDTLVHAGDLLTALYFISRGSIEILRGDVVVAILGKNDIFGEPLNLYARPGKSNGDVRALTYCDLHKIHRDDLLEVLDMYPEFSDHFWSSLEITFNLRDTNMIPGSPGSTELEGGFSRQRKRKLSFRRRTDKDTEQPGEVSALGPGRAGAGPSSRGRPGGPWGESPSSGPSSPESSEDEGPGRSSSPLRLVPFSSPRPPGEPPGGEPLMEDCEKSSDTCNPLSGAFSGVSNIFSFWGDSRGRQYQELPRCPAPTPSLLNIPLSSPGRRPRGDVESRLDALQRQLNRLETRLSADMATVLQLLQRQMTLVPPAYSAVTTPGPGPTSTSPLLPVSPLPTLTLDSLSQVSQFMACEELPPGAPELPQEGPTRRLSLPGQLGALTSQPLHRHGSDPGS
Sequence of serotoninergic 5-HT7 receptor (P34969 whole entry): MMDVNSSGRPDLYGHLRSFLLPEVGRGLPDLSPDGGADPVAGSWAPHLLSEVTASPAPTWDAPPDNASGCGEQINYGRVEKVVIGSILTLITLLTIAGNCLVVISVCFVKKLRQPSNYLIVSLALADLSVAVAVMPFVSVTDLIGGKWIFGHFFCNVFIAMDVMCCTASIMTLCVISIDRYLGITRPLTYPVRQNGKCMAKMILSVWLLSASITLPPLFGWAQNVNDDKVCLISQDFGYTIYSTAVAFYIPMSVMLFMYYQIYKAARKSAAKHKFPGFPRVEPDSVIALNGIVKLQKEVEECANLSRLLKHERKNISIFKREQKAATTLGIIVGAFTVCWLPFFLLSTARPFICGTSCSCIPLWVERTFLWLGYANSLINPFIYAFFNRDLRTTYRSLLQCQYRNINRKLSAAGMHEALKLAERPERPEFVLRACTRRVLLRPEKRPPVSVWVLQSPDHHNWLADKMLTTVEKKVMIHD
Sequence of histaminergic H1 receptor (P35367 whole entry): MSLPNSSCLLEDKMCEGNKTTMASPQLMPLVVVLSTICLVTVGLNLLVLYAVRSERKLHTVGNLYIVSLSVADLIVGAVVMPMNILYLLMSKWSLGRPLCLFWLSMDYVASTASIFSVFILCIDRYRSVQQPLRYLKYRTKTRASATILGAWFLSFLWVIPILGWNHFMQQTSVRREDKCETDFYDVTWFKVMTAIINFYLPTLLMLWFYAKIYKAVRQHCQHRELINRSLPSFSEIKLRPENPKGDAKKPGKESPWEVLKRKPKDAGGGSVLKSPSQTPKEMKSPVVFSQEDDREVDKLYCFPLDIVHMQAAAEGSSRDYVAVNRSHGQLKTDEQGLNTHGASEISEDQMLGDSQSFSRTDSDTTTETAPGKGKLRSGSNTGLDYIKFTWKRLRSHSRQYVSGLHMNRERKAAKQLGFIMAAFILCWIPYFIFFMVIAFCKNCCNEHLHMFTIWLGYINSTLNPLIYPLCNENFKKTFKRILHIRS
Sequence of serotoninergic 5-HT2A receptor (P28223 whole entry): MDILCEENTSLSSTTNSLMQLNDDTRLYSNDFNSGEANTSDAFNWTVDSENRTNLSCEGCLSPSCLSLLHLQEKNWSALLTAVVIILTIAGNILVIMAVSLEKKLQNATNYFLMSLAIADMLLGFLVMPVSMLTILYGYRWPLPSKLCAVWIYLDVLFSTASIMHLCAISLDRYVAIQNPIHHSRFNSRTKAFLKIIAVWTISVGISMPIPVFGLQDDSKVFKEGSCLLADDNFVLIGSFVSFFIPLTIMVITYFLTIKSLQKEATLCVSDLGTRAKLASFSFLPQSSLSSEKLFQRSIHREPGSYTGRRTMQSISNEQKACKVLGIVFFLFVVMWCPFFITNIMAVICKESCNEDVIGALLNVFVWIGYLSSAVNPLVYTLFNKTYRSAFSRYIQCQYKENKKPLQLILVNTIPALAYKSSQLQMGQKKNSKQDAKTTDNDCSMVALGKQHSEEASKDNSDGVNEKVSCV

Structure (SMILES)	inhibition at 1 µM [1] [%]	inhibition at 1 µM [2] [%]	inhibition at 1 µM [3] [%]	inhibition at 1 µM (muscarinic M3 receptor) [%]	inhibition at 1 µM (dopaminergic D3 receptor [4]) [%]	inhibition at 1 µM [5] [%]	inhibition at 1 µM [6] [%]	hERG [%] (hERG potassium channels)	inhibition at 1 µM (adrenergic α2C receptor [7]) [%]	hERG [%] (hERG potassium channels; [11])	inhibition at 1 µM (dopaminergic D3 receptor [8]) [%]	activation at 1 µM (dopaminergic D3 receptor [8]) [%]	activation at 1 µM (adrenergic α2C receptor [9]) [%]	inhibition at 1 µM (adrenergic α2C receptor [9]) [%]	activation at 1 µM ([6]; agonist effect, percent of control specific agonist response, compounds tested at 1×10^−6M, read-out: 5-HT6-ag [%]) [%]	activation at 1 µM [10] [%]	inhibition at 1 µM [10] [%]
Cc1cccc(S(=O)(=O)NCCCCN2CCN(c3nsc4ccccc34)CC2)c1 [Compound 3, N-(4-(4-(1,2-Benzothiazol-3-yl)piperazin-1-yl)butyl)-3-methylbenzenesulphonamide]	77	94	97	13	98	83	22	17	99								
O=S(=O)(NCCCCN1CCN(c2cccc3[nH]ccc23)CC1)c1cnc2ccccn12 [Compound 30, N-{4-[4-(1H-Indol-4-yl)piperazin-1-yl]butyl}-imidazo[1,2-a]pyridine-3-sulphonamide]	11	40	96	66	98	5			99	−3	35	52	18	35			
O=S(=O)(NCCCCN1CCN(c2cccc3[nH]ccc23)CC1)c1cccc(Cl)c1 [Compound 113, N-[4-[4-(1H-Indol-4-yl)piperazin-1-yl]butyl]-3-chlorobenzenesulphonamide]	10	60	97	29	99	74			99	16	30	39	13	53			
O=S(=O)(NCCCN1CCC(c2noc3cc(F)ccc23)CC1)c1ccc2cn[nH]c2c1 [Compound 352, N-[3-[4-(6-Fluoro-1,2-benzoxazol-3-yl)piperidin-1-yl]propyl]-1H-indazole-6-sulphonamide]	78	97	100	12	97	95	75		100		113	-18	-16	16	-2	-1	100
O=S(=O)(NCCCCN1CCN(c2cccc3[nH]ccc23)CC1)c1ccc2cc(Cl)ccc2c1 [Compound 358, 6-Chloro-N-[4-[4-(1H-indol-4-yl)piperazin-1-yl]butyl]naphthalene-2-sulphonamide]	62	74	94	17	99	70			101	0	35	47	28	48		-1	57
O=S(=O)(NCCCCN1CCN(c2cccc3[nH]ccc23)CC1)c1ccc(F)cc1 [Compound 359, 4-Fluoro-N-[4-[4-(1H-indol-4-yl)piperazin-1-yl]butyl]benzenesulphonamide]	12	60	95	63	100	42			99	9	79	25	13	38			

From patent publication US8822517B2, “Arylosulfonamides for the treatment of CNS diseases” (Adamed SP. Z O.O., priority 2010, dated 2014)
